system: Cavia porcellus; experiment: Inhibitory effect was evaluated after intravenous administration on bronchoconstriction induced by NKA receptor in guinea pigs; format: functional; details: read-out: ID50 (the source's name)

For `COc1cc(C(=O)N2CCOC(CCN3CCC4(CC3)c3ccccc3C[S+]4[O-])(c3ccc(Cl)c(Cl)c3)C2)cc(OC)c1OC.Cl` (configuration not stated), the ED50 was 0.04 mg/kg.

target: T1, Substance-K receptor (Cavia porcellus, UniProt Q64077); experiment: The compound was evaluated in vitro for its ability to displace [3H]SP from Tachykinin receptor 2 of male guinea pig lung membrane; format: tissue-based; details: not given
T1 sequence (Q64077 whole entry): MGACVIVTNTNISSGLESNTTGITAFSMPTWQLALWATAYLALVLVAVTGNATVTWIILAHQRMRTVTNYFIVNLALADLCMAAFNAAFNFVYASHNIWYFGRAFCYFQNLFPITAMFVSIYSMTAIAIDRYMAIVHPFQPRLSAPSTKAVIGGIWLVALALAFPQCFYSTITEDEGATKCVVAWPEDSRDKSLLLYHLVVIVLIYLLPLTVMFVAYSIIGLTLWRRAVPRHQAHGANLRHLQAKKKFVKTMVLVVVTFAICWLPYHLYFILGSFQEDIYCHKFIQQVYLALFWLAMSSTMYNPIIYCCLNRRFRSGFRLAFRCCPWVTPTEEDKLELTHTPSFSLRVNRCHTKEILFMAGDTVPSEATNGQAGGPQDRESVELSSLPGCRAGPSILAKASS

Going from `COc1cc(C(=O)N2CCO[C@](CCN3CCC4(CC3)c3ccccc3C[S@+]4[O-])(c3ccc(Cl)c(Cl)c3)C2)cc(OC)c1OC` to `COc1cc(C(=O)N2CCO[C@@](CCN3CCC4(CC3)c3ccccc3C[S@@+]4[O-])(c3ccc(Cl)c(Cl)c3)C2)cc(OC)c1OC` (racemic), the IC50 rises from 3.1 nM to greater than 1000 nM. The first is the more potent here.

First: COc1cc(C(=O)N2CCO[C@@](CCN3CCC4(CC3)c3ccccc3C[S@+]4[O-])(c3ccc(Cl)c(Cl)c3)C2)cc(OC)c1OC
Second: COc1cc(C(=O)N2CCO[C@](CCN3CCC4(CC3)c3ccccc3C[S@@+]4[O-])(c3ccc(Cl)c(Cl)c3)C2)cc(OC)c1OC
The IC50 of the first is higher: greater than 1000 nM for the first, 59 nM for the second.

`COc1cc(C(=O)N2CCO[C@@](CCN3CCC4(CC3)c3ccccc3C[C@@H]4O)(c3ccc(Cl)c(Cl)c3)C2)cc(OC)c1OC` and `COc1cc(C(=O)N2CCO[C@@](CCN3CCC4(CC3)c3ccccc3C[C@H]4O)(c3ccc(Cl)c(Cl)c3)C2)cc(OC)c1OC` (racemic) cannot be ordered by IC50: greater than 1000 nM for the first, greater than 1000 nM for the second.

First: COc1cc(C(=O)N2CCO[C@](CCN3CCC4(CC3)c3ccccc3C[C@H]4O)(c3ccc(Cl)c(Cl)c3)C2)cc(OC)c1OC
Second: COc1cc(C(=O)N2CCO[C@](CCN3CCC4(CC3)c3ccccc3C[C@@H]4O)(c3ccc(Cl)c(Cl)c3)C2)cc(OC)c1OC
The IC50 of the first is 6.6-fold higher: 45 nM for the first, 6.8 nM for the second.

system: Cavia porcellus; experiment: Inhibitory effect was evaluated after intravenous administration on bronchoconstriction induced by NKB receptor in guinea pigs; format: functional; details: read-out: ID50 (the source's name)

`COc1cc(C(=O)N2CCOC(CCN3CCC4(CC3)c3ccccc3C[S+]4[O-])(c3ccc(Cl)c(Cl)c3)C2)cc(OC)c1OC.Cl` (configuration not stated) showed an ED50 of 0.063 mg/kg.

target: Substance-P receptor (Cavia porcellus, UniProt P30547); experiment: The compound was evaluated in vitro for its ability to displace [3H]SP from Tachykinin receptor 1 of male guinea pig lung membrane; format: tissue-based; details: not given
Sequence (P30547 whole entry): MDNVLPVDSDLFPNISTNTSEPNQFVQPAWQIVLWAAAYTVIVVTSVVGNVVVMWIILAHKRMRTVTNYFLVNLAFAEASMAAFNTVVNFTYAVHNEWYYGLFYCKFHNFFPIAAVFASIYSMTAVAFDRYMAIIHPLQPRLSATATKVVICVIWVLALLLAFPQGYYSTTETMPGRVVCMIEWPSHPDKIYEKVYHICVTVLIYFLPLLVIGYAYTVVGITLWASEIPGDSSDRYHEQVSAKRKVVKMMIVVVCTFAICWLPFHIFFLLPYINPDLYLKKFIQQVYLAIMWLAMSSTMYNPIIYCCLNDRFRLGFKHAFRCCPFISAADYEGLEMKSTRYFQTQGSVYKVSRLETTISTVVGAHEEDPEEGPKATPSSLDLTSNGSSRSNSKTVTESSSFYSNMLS

Compared with `COc1cc(C(=O)N2CCO[C@](CCN3CCC4(CC3)c3ccccc3C[S@+]4[O-])(c3ccc(Cl)c(Cl)c3)C2)cc(OC)c1OC`, `COc1cc(C(=O)N2CCO[C@@](CCN3CCC4(CC3)c3ccccc3C[S@@+]4[O-])(c3ccc(Cl)c(Cl)c3)C2)cc(OC)c1OC` (racemic) is higher in IC50: 21 nM for the first, greater than 1000 nM for the second. The first is the more potent here.

Going from `COc1cc(C(=O)N2CCO[C@@](CCN3CCC4(CC3)c3ccccc3C[S@+]4[O-])(c3ccc(Cl)c(Cl)c3)C2)cc(OC)c1OC` to `COc1cc(C(=O)N2CCO[C@](CCN3CCC4(CC3)c3ccccc3C[S@@+]4[O-])(c3ccc(Cl)c(Cl)c3)C2)cc(OC)c1OC`, the IC50 falls from greater than 1000 nM to 220 nM.

`COc1cc(C(=O)N2CCO[C@@](CCN3CCC4(CC3)c3ccccc3C[C@@H]4O)(c3ccc(Cl)c(Cl)c3)C2)cc(OC)c1OC` and `COc1cc(C(=O)N2CCO[C@@](CCN3CCC4(CC3)c3ccccc3C[C@H]4O)(c3ccc(Cl)c(Cl)c3)C2)cc(OC)c1OC` (racemic) cannot be ordered by IC50: greater than 1000 nM for the first, greater than 1000 nM for the second.

Compared with `COc1cc(C(=O)N2CCO[C@](CCN3CCC4(CC3)c3ccccc3C[C@H]4O)(c3ccc(Cl)c(Cl)c3)C2)cc(OC)c1OC`, `COc1cc(C(=O)N2CCO[C@](CCN3CCC4(CC3)c3ccccc3C[C@@H]4O)(c3ccc(Cl)c(Cl)c3)C2)cc(OC)c1OC` is 6.8-fold lower in IC50: 270 nM for the first, 40 nM for the second.

system: Cavia porcellus; experiment: Inhibitory effect of compound was evaluated after intravenous administration on SP-induced plasma protein extravasation, mediated by NK1 receptors in guinea pig airways; format: functional; details: read-out: ID50 (the source's name)

`COc1cc(C(=O)N2CCOC(CCN3CCC4(CC3)c3ccccc3C[S+]4[O-])(c3ccc(Cl)c(Cl)c3)C2)cc(OC)c1OC.Cl` (configuration not stated) was tested, and the ED50 was 0.33 mg/kg.

target: T2, Neuromedin-K receptor (Cavia porcellus, UniProt P30098); experiment: The compound was evaluated in vitro for its ability to displace [3H]SP from Tachykinin receptor 3 of male guinea pig lung membrane; format: tissue-based; details: not given
T2 sequence (P30098 whole entry): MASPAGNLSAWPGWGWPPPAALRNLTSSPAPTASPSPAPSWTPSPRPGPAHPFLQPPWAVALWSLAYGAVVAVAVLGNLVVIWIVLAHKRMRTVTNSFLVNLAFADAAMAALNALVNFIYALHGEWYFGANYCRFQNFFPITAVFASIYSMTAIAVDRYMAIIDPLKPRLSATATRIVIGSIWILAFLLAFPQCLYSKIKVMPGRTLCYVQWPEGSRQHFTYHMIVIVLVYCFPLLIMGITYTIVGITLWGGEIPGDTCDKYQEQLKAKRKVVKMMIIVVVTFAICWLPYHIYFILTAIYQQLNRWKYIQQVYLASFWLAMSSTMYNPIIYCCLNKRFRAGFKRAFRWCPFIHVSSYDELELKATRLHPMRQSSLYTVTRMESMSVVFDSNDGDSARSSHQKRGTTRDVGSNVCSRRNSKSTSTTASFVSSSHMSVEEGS

Going from `COc1cc(C(=O)N2CCO[C@](CCN3CCC4(CC3)c3ccccc3C[S@+]4[O-])(c3ccc(Cl)c(Cl)c3)C2)cc(OC)c1OC` to `COc1cc(C(=O)N2CCO[C@@](CCN3CCC4(CC3)c3ccccc3C[S@@+]4[O-])(c3ccc(Cl)c(Cl)c3)C2)cc(OC)c1OC` (racemic), the IC50 rises from 0.72 nM to 660 nM (920-fold).

First: COc1cc(C(=O)N2CCO[C@@](CCN3CCC4(CC3)c3ccccc3C[S@+]4[O-])(c3ccc(Cl)c(Cl)c3)C2)cc(OC)c1OC
Second: COc1cc(C(=O)N2CCO[C@](CCN3CCC4(CC3)c3ccccc3C[S@@+]4[O-])(c3ccc(Cl)c(Cl)c3)C2)cc(OC)c1OC
The IC50 of the first is 47-fold higher: 520 nM for the first, 11 nM for the second.

`COc1cc(C(=O)N2CCO[C@@](CCN3CCC4(CC3)c3ccccc3C[C@@H]4O)(c3ccc(Cl)c(Cl)c3)C2)cc(OC)c1OC` and `COc1cc(C(=O)N2CCO[C@@](CCN3CCC4(CC3)c3ccccc3C[C@H]4O)(c3ccc(Cl)c(Cl)c3)C2)cc(OC)c1OC` (racemic) cannot be ordered by IC50: greater than 1000 nM for the first, greater than 1000 nM for the second.

Going from `COc1cc(C(=O)N2CCO[C@](CCN3CCC4(CC3)c3ccccc3C[C@H]4O)(c3ccc(Cl)c(Cl)c3)C2)cc(OC)c1OC` to `COc1cc(C(=O)N2CCO[C@](CCN3CCC4(CC3)c3ccccc3C[C@@H]4O)(c3ccc(Cl)c(Cl)c3)C2)cc(OC)c1OC`, the IC50 falls from 17 nM to 2.7 nM (6.3-fold). The second is the more potent here.

From ChEMBL document CHEMBL1133249, “Combined tachykinin receptor antagonist: synthesis and stereochemical structure-activity relationships of novel morpholine analogues” (Bioorg Med Chem Lett, 2000)
